In patent publication US20180251824A1, “IN VITRO GENOTOXICITY ASSAY USING A TRANSCRIPTOMIC BIOMARKER WITH DIRECT DIGITAL COUNTING” (GEORGETOWN UNIVERSITY, priority 2017, published 2018):
Entries after “also recorded” stand apart in the source; their conditions may differ.

Experiments:
[1] = system: TGx-DDI biomarker genes in TK6 cells; test: TGx-DDI transcriptomic biomarker classification by microarray; type: cell-based, human; details: for TGx-DDI classification, overall call (DDI if positive in any of 2DC, PCA, PA): TK6 cells, 4 h, single selected concentration; for TGx-DDI classification by 2DC and/or PCA: DDI branch in 2DC or negative PC1 = DDI; for TGx-DDI prediction by probability analysis (PA): DDI call based on p>0.9
Description: Microarray procedures: RNA samples from the concentration-setting experiments of each compound at their selected concentrations were pooled together and analyzed using human whole genome expression long-nucleotide probe microarrays (60 nucleotide long, Agilent Technologies) microarray (Li et al., 2015). […] Each experiment was run on two arrays, and on each array both treated and reference (vehicle control) samples were hybridized in a dye-swap design. Specifically, the reference and treatment samples were labeled with two different fluorescence dyes, Cy3 and Cy5, and then both samples were hybridized onto one array. To reduce the effects associated with different labeling efficiencies, a two-color dye-swapping configuration was used. The results from these two arrays were combined for statistical analysis.
TGx-DDI transcriptomic biomarker evaluation: Following the dose determination, microarray analysis was performed for each test compound. RNAs from three replicates in the concentration-setting experiment were pooled together and used for microarray analysis. Cisplatin and ionizing radiation were used in parallel during each experiment as positive controls and to assess batch variation. The TGx-DDI transcriptomic biomarker panel was used to classify each chemical as DDI or non-DDI using two-dimensional clustering (2DC), principal component analysis (PCA), and probability analysis (PA). Hierarchical clustering and PCA were used as an initial unsupervised method to explore the data.
The TGx-DDI heatmap for chemicals in all five classes. PA, PCA, and 2DC results using the TGx-DDI biomarker for validation chemicals were generated. In order to decrease the probability of false negatives, a three-pronged approach was used. A chemical was classified as DDI if it gave a positive call in any one of the TGx-DDI biomarker analyses described in the paragraph above (2DC, PCA or PA prediction).

[2] = system: ATF3, CDKN1A and GADD45A expression in TK6 cells; test: qRT-PCR indicator stress gene panel, dose optimization; type: cell-based, human; details: for transcriptional response of the indicator genes at a later time point: later than the 4 h time point
Experimental: Dose optimization: For some assays, a sufficient concentration of the test agent is required to trigger a measureable transcriptional response; such concentrations may differ from other toxicological endpoints. Therefore, to determine an appropriate concentration for transcriptomics profiling, a dose-range finder experiment was performed for all test compounds as described in Li et al. (2015). Six concentrations of each agent were used for assessment of mRNA changes in three indicator genes (ATF 3, CDKNIA, and GADD45A) by qRT-PCR. The concentration for each agent showing the strongest induction of the indicator genes was then selected. In addition, concordance of responses in the indicator genes was confirmed prior to pooling samples for microarray analysis. If none of the indicator genes were induced in concentration-setting experiments, the IC50 was selected for the microarray analysis. The IC50 value was determined using a standard MTT assay at 24 hr using 10 concentrations and 3 replicates. Based on this cytotoxicity assay, the selected concentrations for microarray analysis were not overtly cytotoxic for any test agent (FIG. 2). If there was neither cytotoxicity nor induction of expression changes in the gene panel, a concentration of 1 mM was used for microarray analysis, as per the revised ICHS2(R1) guidance on genotoxicity testing of pharmaceuticals (ICHS2(R1) (2012) Guidance for Industry: S2(R1) Genotoxicity testing and data interpretation for pharmaceuticals intended for human use. US Department of Health and Human Services, Food and Drug Administration http://www.ich.org/fileadmin/Public_Web_Site/ICH_Products/Guidelines/Safety/S2_R1/Step4/S2R1_Step4.pdf). Selection of a single concentration and pooling replicate samples for microarray analysis (described below) is specific to biomarker development and validation, where multiple compounds were used in each class; future application in substance testing should be undertaken using a dose-response design with samples in triplicate (Buick et al., 2017).

[3] = system: TGx-DDI biomarker genes in TK6 cells; test: TGx-DDI nCounter assay (direct digital counting); details: 100 ng total RNA, same samples as microarray; 2DC, PCA, PA
Experimental: Briefly, exponentially growing cells were treated with the indicated chemical agent for 4 h over a broad dose range, cells were harvested, and total RNA was isolated. […] For cell viability assays, at the end of 4 hr treatment, medium was removed from cells, and cells were washed and recovered in fresh medium for 20 hr. Cell viability was measured at the end of recovery period using an MTT Assay kit (Cayman Chemical, Ann Arbor, Mich.).
TGx-DDI nCounter Assay: The nCounter™ assay was performed on 100 ng of RNA that had previously been pooled and used in microarray analysis. […] In brief, optimized sequences for genes in the TGx-DDI panel were custom-designed and manufactured by NanoString. The CodeSet includes the TGx-DDI gene-set and eight housekeeping genes. Housekeeping genes were selected based on stability and detectable expression levels, including G6PD, GUSB, HPRT1, LDHA, NONO, PGK1, PPIH, and TFRC.
To validate the sensitivity and specificity of DDI prediction by TGx-DDI nCounter assay, 38 out of 45 testing compounds, including Class 1, 2, 4 and 5, were evaluated using nCounter technology. nCounter assays were performed on 100 ng of total RNA, the same RNA samples that were used in microarray analysis. Following the categorization guideline described already for microarrays, compounds were classified as DDI or non-DDI based on nCounter assay data.

TK6 cells = test: MTT cell viability assay; type: cell-based, human; details: selected concentration, 4 hr treatment plus 20 hr recovery
Experimental: Dose optimization: For some assays, a sufficient concentration of the test agent is required to trigger a measureable transcriptional response; such concentrations may differ from other toxicological endpoints. Therefore, to determine an appropriate concentration for transcriptomics profiling, a dose-range finder experiment was performed for all test compounds as described in Li et al. (2015). Six concentrations of each agent were used for assessment of mRNA changes in three indicator genes (ATF 3, CDKNIA, and GADD45A) by qRT-PCR. The concentration for each agent showing the strongest induction of the indicator genes was then selected. In addition, concordance of responses in the indicator genes was confirmed prior to pooling samples for microarray analysis. If none of the indicator genes were induced in concentration-setting experiments, the IC50 was selected for the microarray analysis. The IC50 value was determined using a standard MTT assay at 24 hr using 10 concentrations and 3 replicates. Based on this cytotoxicity assay, the selected concentrations for microarray analysis were not overtly cytotoxic for any test agent (FIG. 2). Based on this cytotoxicity assay, the selected doses for microarray analysis were not overtly cytotoxic. […]

Molecule: O=c1[nH]cc(F)c(=O)[nH]1 [5-FU]
- TGx-DDI classification, overall call (DDI if positive in any of 2DC, PCA, PA) [1]: DDI

Molecule: Nc1ncn([C@@H]2O[C@H](CO)[C@@H](O)[C@H]2O)c(=O)n1 [5-azacytidine]
- transcriptional response of the indicator genes at a later time point [2]: stronger transcriptional response
- TGx-DDI classification, overall call (DDI if positive in any of 2DC, PCA, PA) [1]: non-DDI

Molecule: Nc1nc2[nH]cnc2c(=S)[nH]1 [6-TG]
- TGx-DDI classification, overall call (DDI if positive in any of 2DC, PCA, PA) [1]: DDI

Molecule: Sc1ncnc2nc[nH]c12 [6-mercaptopurine]
- transcriptional response of the indicator genes at a later time point [2]: stronger transcriptional response
- TGx-DDI classification, overall call (DDI if positive in any of 2DC, PCA, PA) [1]: non-DDI

Molecule: COS(C)(=O)=O [MMS]
- clustering by 2DC using the TGx-DDI biomarker ([1]; reproducibility check with training-set agents, selected concentration): clustered with the genotoxic agents

Molecule: CS(=O)(=O)OCCCCOS(C)(=O)=O [busulfan]
- GADD45A induction relative to vehicle-treated control cells ([2]; TK6 cells, 4 h treatment, selected concentration): at least 2 fold
- induction of stress genes at higher concentrations ([2]; concentrations above the selected one): did not cause greater induction
- TGx-DDI classification by 2DC and/or PCA [1]: DDI agents; also recorded: positive
- TGx-DDI prediction by probability analysis (PA) [1]: non-DDI
- TGx-DDI classification by nCounter [3]: consistency among three classification methods

Molecule: Cc1nc(Nc2ncc(C(=O)Nc3c(C)cccc3Cl)s2)cc(N2CCN(CCO)CC2)n1 [dasatanib]
- TGx-DDI classification, overall call (DDI if positive in any of 2DC, PCA, PA) [1]: genotoxic calls

Molecule: CC/C(=C(/CC)c1ccc(O)cc1)c1ccc(O)cc1 [diethylstilbestrol]
- TGx-DDI classification by 2DC and/or PCA [1]: positive
- TGx-DDI prediction by probability analysis (PA) [1]: non-DDI
- TGx-DDI classification, overall call (DDI if positive in any of 2DC, PCA, PA) [1]: genotoxic calls

Molecule: Oc1ccc(O)cc1 [hydroquinone]
- TGx-DDI classification by 2DC and/or PCA [1]: DDI agents; also recorded: positive
- TGx-DDI prediction by probability analysis (PA) [1]: non-DDI
- TGx-DDI classification by nCounter [3]: consistency among three classification methods

Molecule: CCn1cc(C(=O)O)c(=O)c2cc(F)c(N3CCNCC3)cc21 [norfloxacin]
- TGx-DDI classification, overall call (DDI if positive in any of 2DC, PCA, PA) [1]: non-DDI

Molecule: CCCN(CCc1cccs1)[C@H]1CCc2c(O)cccc2C1 [rotigotin]
- induction of indicator genes ATF3, CDKN1A, GADD45A ([2]; TK6 cells, 4 h treatment, selected or tested concentrations): did not induce any of the indicator genes

Molecule: bleomycin
- decline (reduction) in cell viability at 24 hr (TK6 cells): 80%
